Literature values as cited in patent publication US20150299754A1, “STREPTOMYCES MICROFLAVUS STRAINS AND METHODS OF THEIR USE TO CONTROL PLANT DISEASES AND PESTS” (Bayer CropScience LP, priority 2014, published 2015).

Key:
[1] = test system: powdery mildew; settings: according to GB 1 507 193
[2] = test system: gram-positive, gram-negative bacteria and tubercule bacillus; settings: according to U.S. Pat. No. 3,849,398
[3] = test system: parasites on animals, such as pin worm; settings: according to U.S. Pat. No. 3,849,398

Row | SMILES | antifungal activity against powdery mildew [1] | antibacterial activity [2] | parasiticidal action [3]
1 | NC(N)=NCC(O)CC(O)(C(=O)O)[C@H]1O[C@@H](n2cc(CO)c(N)nc2=O)C=C[C@@H]1NC(=O)[C@@H](N)CO (stereo partly drawn) [B-98891] | antifungal activity |  | 
2 | CNCC(=O)NC(CO)C(=O)NC1C(C(N)=O)OC(n2ccc(N)nc2=O)C(O)C1O (stereo not drawn) [gougerotin] |  | weak antibacterial activity | parasiticidal action
